The nature of series [1]: Dissolution study of diltiazem hydrochloride tablets, USP 23 apparatus II (paddle), deionized water. The series is classed as physicochemical. On the procedure: The system was automated using an HP diode array UV spectrophotometer, 8452a with continuous sampling, using a peristaltic pump (HP flow control, 89092A) and Mckinet software (HP 89532K Multicell Kinetics Software) for data analysis. Measurements were performed at 238 nm. […] Fresh dissolution medium (5 mL), heated to 37° C., was added to the vessel to maintain constant volume. Each experimental ran (n=3) was done at least in duplicate. […]

The conditions of series [2]: cited from earlier work.
For series [3] the following is noted: cited from earlier work. This is another data set of the same source.
Series [4] in a line: Dissolution study of propranolol tablets in deionized water. The series is classed as physicochemical.
Procedure: The dissolution study was performed in 1,000 ml deionized water at 37° C. and 100 rpm. Measurements were performed at wavelength 289 nm.

Take `COc1ccc([C@@H]2Sc3ccccc3N(CCN(C)C)C(=O)[C@@H]2OC(C)=O)cc1` [diltiazem, Diltiazem]: the “correlation coefficient of release profile (linearity)” value came to 0.946 in series [1] (absence of either gelatin or tragacanth); 0.997 in series [1] (diltiazem granulated/coated with gelatin, in binary polymeric matrix); 0.979 in series [1] (diltiazem granulated/coated with tragacanth, in binary polymeric matrix). The “degradation product, HPLC analysis (USP 23 method)” value in series [1] (entire dissolution period) is listed as “no degradation product”. Also, in series [2] (due to extensive variable first-pass metabolism), the bioavailability (in general, the share of a dose that reaches the circulation, judged against a reference dose that is usually intravenous) is 30 to 60%. In addition, the clearance from plasma result in series [2] (in vivo) is reported as “high clearance”. Also, in series [2] (in vivo), the elimination half-life was 3 to 6 h. The protein binding result in series [3] is “greater than 90%”.
Consider `CC(C)NCC(O)COc1cccc2ccccc12` (centres unmarked) [propranolol], for which the “correlation coefficient of release profile (linearity)” value in series [4] (control) turned out to be 0.927; in series [4] (propranolol granulated/coated with gelatin, in binary polymeric matrix), 0.994; in series [4] (propranolol granulated/coated with tragacanth, in binary polymeric matrix) it was 0.989.

The values are drawn from patent US6337091B1, “Matrix for controlled delivery of highly soluble pharmaceutical agents” (Temple University - of the Commonwealth System of Higher …, priority 1997, dated 2002).
